The numbers were not newly measured in patent US12611397B1, “Pharmaceutical composition of darolutamide” (ORION CORPORATION, priority 2019, dated 2026), which cites them from elsewhere.

Each structure is given as a SMILES string.

In the case of `CC(O)c1cc(C(=O)N[C@@H](C)Cn2ccc(-c3ccc(C#N)c(Cl)c3)n2)[nH]n1` (stereo partly drawn) [Darolutamide, N—((S)-1-(3-(3-chloro-4-cyanophenyl)-1H-pyrazol-1-yl)-propan-2-yl)-5-(1-hydroxyethyl)-1H-pyrazole-3-carboxamide], the Solubility in water result is recorded as “poorly soluble in water”.
